This is an account of results in US20140096284A1, “METHOD FOR THE DELIVERY OF MOLECULES LYOPHILIZED ONTO MICROPARTICLES TO PLANT TISSUES” (priority 2012, published 2014).

The test system of one data set is tobacco leaf cells. In words: Biolistic delivery of molecules lyophilized onto 0.6 μm gold to tobacco leaf tissue. The settings on record: 250 μg per shot lyophilized onto 0.6 μm gold; tobacco leaves. It counts as cell-based, Nicotiana tabacum var. Petite Havana. The protocol:
(§1) Onion epidermis tissue was obtained from the scale leaves of white onion bulbs. Rectangular (3×2.5 cm) pieces were peeled right before the bombardment and placed in solid agar media (0.5 mM of 2-(N-morpholino)ethanesulfonic acid (MES), 15 g L^−1 Bacto agar (BD), pH 5.7) with the peeled side upwards. For quantitative measurements, epidermis pieces of the same scale leaf were distributed among treatments. Tobacco leaves (Nicotiana tabacum var. Petite Havana) were obtained from 3-6 week old in vitro grown plants on MS media (MS medium (Murashige and Skoog, 1962), 2% sucrose, 2.5 g L^−1 gelrite, pH 5.7). Leaves were cut right before bombardment and put with the adaxial surface up on agar media. Hill maize immature embryos were obtained from immature ears provided by the Center for Plant Transformation—Iowa State University. Immature embryos (1-2 mm long) were cultured as previously described (Frame et al., 2000).
(§2) The saturated solutions of chemical or biomolecules used were done as follows (data per shot): for bromophenol blue (Sigma) delivery 10 μL of a 100 μg 1 μL^−1 mg solution were used. For plasmid DNA delivery, 2 μL of a 500 ng μL^−1 solution of the plasmid pLMNC95 (Luke Mankin and Thompson, 2001) were used for GFP expression. For mCherry expression linear dsDNA, the plasmid ER-rk (Nelson et al., 2007) was digested with the restriction enzymes SacI-HindIII. […]

For another data set, the system named is maize immature embryos. In words: Biolistic delivery of molecules lyophilized onto 0.6 μm gold to maize immature embryos. It counts as cell-based. The settings on record: 250 μg per shot lyophilized onto 0.6 μm gold; maize Hi II immature embryo scutella. On the procedure: as §1, §2
Data set [1] concerns onion epidermis tissue. In words: Fluorescein diacetate staining, count of dead cells after bombardment. In kind it is cell-based. The settings on record: 250 μg per shot. On the procedure: Onion epidermis tissues were submerged in 10 mL of MS liquid media to which 100 μL of a 5 mg mL^−1 of fluorescein diacetate (Alfa Aesar) solution in acetone were added. The samples were incubated for 2-5 minutes and directly observed under the green channel filter of the fluorescence microscope. For quantitative measurements, 12 images (10.5×8 mm) were taken with the 5× microscope objective scattered every 0.5 cm (4 columns×3 rows). The total amount of dead cells found on each image was counted.
The high concentration of protein used per shot (250 μg per shot) and the lyophilization process could cause cell death by: (1) physical damage of the potential clumps produced after lyophilizing protein and microparticles and (2) excess of intracellular protein delivery reaching toxic levels. To assess cellular death, onion epidermis tissues were stained with fluorescein diacetate, which stains in fluorescent green the living cells, while the dead ones remain dark (FIG. 7A). […]
As another example of active enzyme delivery, trypsin and RNAse A were chosen. […] The number of dead cells was measured using fluorescein diacetate staining in samples not bombarded, bombarded only with 0.6 μm gold or with 200 μg of trypsin or 40 μg of RNAse per shot. […]

The subject of data set [2] is onion epidermis tissue. In words: Biolistic delivery of molecules lyophilized onto 0.6 μm gold microcarriers to onion epidermis tissue. In kind it is cell-based. The note with it: lyophilized onto 0.6 μm gold, observed about 30 minutes after bombardment. The protocol: 2 μL of 0.6 μm gold particle stock was mixed with 1 μg of GFP plasmid pLMNC95 or 2 μL of a 400 ng/μL, TRITC-BSA solution. The mixture was poured on a macrocarrier, frozen in liquid nitrogen and freeze-dry for 1 hour prior to onion epidermis tissue bombardment.
as §1, with “Immature embryos (1-2 mm long) were cultured as previously described (Frame et al., 2000).” left out
Bright field and fluorescence images were taken using a Zeiss Axio star plus microscope. […] For the green channel fluorescence images a GFP BP filter (Chroma Technology Corp.) was used (λex=470 nm, beam splitter=495 nm and λem=525 nm). […]

Data set [3] deals with onion epidermis tissue. In words: Control: solution deposited or incubated on onion epidermis tissue without coated projectiles. In kind it is cell-based. The note with it: solution on the surface of onion epidermis tissue. On the procedure:
The dye bromophenol blue was used to test the ability of the system to deliver a chemical. As a control, a saturated solution of the dye (10 μL of a 100 μg μL^−1 mg) was deposited with a pipette on top of onion epidermis tissue. […] For the bromophenol blue delivery, the saturated solution was mixed with 0.6 μm gold microcarriers and an aliquot was deposited over a macrocarrier set. This macrocarrier set was frozen in liquid nitrogen for 5-10 minutes and then lyophilized for an hour using a lyophilizer. This macrocarrier set was subsequently used to bombard onion epidermis tissue. […] The amount of dye delivered to each cell was different, and as a consequence, different shades of purple could be observed in the bombarded tissue (FIG. 3C).
Protein delivery can be considered a difficult challenge because proteins could be subjected to denaturation during the delivery process. […] This protein will not fluoresce if denatured (Ward and Bokman, 1982). As a control, to test if the protein could be diffused into plant cells, 10 μL of a 100 ng/μL eGFP solution were incubated for 30 minutes on the surface of intact onion epidermis tissue or bombarded with bare 0.6 μm gold microparticles. […] Lyophilization of eGFP onto 0.6 μm gold microcarriers was done using 2.5 μL of 1 μg μL^−1 solution of the protein and 60 μg of microcarriers per shot.

In the case of “tetramethylrhodamine isothiocyanate labeled bovine serum albumin [TRITC-BSA]”, the “protein delivery (red fluorescence)” value in the data set with tobacco leaf cells and in the data set on maize immature embryos was “delivery could be observed” each time. Also, in the data set on onion epidermis tissue [1] (1 day after bombardment, differences were not significant), the “number of dead cells compared with bombardment without the protein” value is reported as “higher”. Moreover, in the data set on onion epidermis tissue [1] (stained 1 day after bombardment), the “viability of cells showing protein delivery” value is reported as “most of the cells showing TRITC-BSA delivery were alive”. In addition, the “intracellular delivery after bombardment” value in the data set with onion epidermis tissue [2] is “successfully delivered”.
As to `O=S1(=O)OC(c2cc(Br)c(O)c(Br)c2)(c2cc(Br)c(O)c(Br)c2)c2ccccc21` [bromophenol blue, reference compound], the “permeation or diffusion into cells without coated projectiles” value with onion epidermis tissue [3] is listed as “did not permeate”. Also, the “intracellular delivery after bombardment” value with onion epidermis tissue [2] is on record as “several cells were showing bluish-purple coloration”.
